# How the values were obtained:
# [1] = Abdominal contrast enhanced CT in minipig, arterial phase, SNR of ROI; type: in vivo; details: for ASiR 60% [SNR] / Veo [SNR]: 80 kVp
# Procedure: (§1) An anaesthetized minipig (abdominal maximum and minimum diameters 36 cm and 20 cm, respectively) was imaged 3 times (imaging protocols 1, 2 and 3, Tables 3 and 4) on a Discovery CT 750 HD. Visipaque (60 mL) was injected at a rate of 2 mL/s into a jugular vein, followed by a 20 mL saline flush at the same injection rate. There was at least a 2 day washout period between each scanning session.
# (§2) Protocol 1 with a Visipaque concentration of 320 mg l/mL and 120 kVp tube voltage represents current standard of care (SoC) imaging for humans. Automated tube current modulation (≦500 mA) was used with a noise index level of 30 and a tube rotation time of 0.7 s. Post-contrast CT images were acquired during the arterial phase, the portal venous phase, the venous phase and the late phase. Image reconstruction was done by (1) FBP, (2) ASiR 60% and (3) Veo. Pixel size was 0.703 mm×0.703 mm×0.625 mm.
# (§3) Iodine contrast enhancement was assessed by measuring the signal-to-noise ratio (SNR) of circular regions of interest (ROI), see Tables 3 and 4. The SNR is calculated as ratio of mean ROI intensity in HU and standard deviation (SD). ROIs were placed in aorta and muscle (quadratus lumborum) in arterial phase images and in liver in venous phase images.
# [2] = Abdominal contrast enhanced CT in minipig, venous phase, SNR of ROI; type: in vivo; details: liver; for ASiR 60% [SNR] / Veo [SNR]: 80 kVp
# Procedure: as §1, §2, §3
# [3] = protocol 1: Visipaque 320 mg I/ml, 120 kVp, CTDIvol 6.7 mGy
# [4] = protocol 2: Visipaque 170 mg I/ml, CTDIvol 3.2 mGy
# [5] = protocol 3: Visipaque 120 mg I/ml, CTDIvol 6.4 mGy
structure (smiles),measurement,setting,value
"CC(=O)N(CC(O)CN(C(C)=O)c1c(I)c(C(=O)NCC(O)CO)c(I)c(C(=O)NCC(O)CO)c1I)c1c(I)c(C(=O)NCC(O)CO)c(I)c(C(=O)NCC(O)CO)c1I (stereo not shown) [Visipaque, iodixanol]",FBP [SNR],[1]; [3],8.3
same,ASiR 60% [SNR],[1]; [4],7.4
same,Veo [SNR],[1]; [4],12.8
same,ASiR 60% [SNR],[1]; [5],8.5
same,Veo [SNR],[1]; [5],14.2
same,FBP [SNR],[2]; [3],4.3
same,ASiR 60% [SNR],[2]; [4],3.5
same,Veo [SNR],[2]; [4],8.1
same,ASiR 60% [SNR],[2]; [5],4.7
same,Veo [SNR],[2]; [5],8.1
